SMILES strings stand for the structures. Active and inactive are the calls of the source.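 How the source made its calls: active means IC50 below 50 µM, and active in both the human and murine receptor assays; inactive means the rest.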 Where only a bound is given, the exact number is not on record here.

This experiment deals with C-X-C chemokine receptor type 6 (Mus musculus) (UniProt Q9EQ16). The experiment can be described thus: mouse CXCR6 receptor antagonists, SAR follow-up, selectivity assay for human CXCR6 antagonist project, cell-based, mouse ortholog, CHO-K1, luminescence (AID 651940). The note with it: CHO-K1 mCXCR6 beta-arrestin PathHunter.
C-X-C chemokine receptor type 6 (Mus musculus), sequence (Q9EQ16 whole entry, looked up): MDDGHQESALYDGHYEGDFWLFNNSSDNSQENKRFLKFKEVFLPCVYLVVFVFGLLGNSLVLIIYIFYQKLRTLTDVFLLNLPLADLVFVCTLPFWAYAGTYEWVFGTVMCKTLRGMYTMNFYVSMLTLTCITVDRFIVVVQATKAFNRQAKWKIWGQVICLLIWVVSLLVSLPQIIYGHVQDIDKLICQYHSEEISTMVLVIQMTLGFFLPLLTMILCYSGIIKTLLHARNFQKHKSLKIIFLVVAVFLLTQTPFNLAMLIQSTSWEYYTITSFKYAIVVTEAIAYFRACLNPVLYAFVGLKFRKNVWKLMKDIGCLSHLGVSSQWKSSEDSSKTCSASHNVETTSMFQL

Regarding `COc1ccc(CN2C3CCCC2CC(NC(=O)c2cc(OC)c(OC)c(OC)c2)C3)cc1` (configuration not stated), the IC50 was > 79 µM (inactive).

`COc1cc(C(=O)NC2CC3CCCC(C2)N3CC(=O)Nc2ccccc2)cc(OC)c1OC` (configuration not stated): the IC50 is > 79 µM (inactive).

With `COc1cc(C(=O)NC2CC3CCCC(C2)N3CC(=O)Nc2ccc(C)cc2)cc(OC)c1OC` (configuration not stated), the IC50 entry was “inactive”.

For `COc1ccc(NC(=O)CN2C3CCCC2CC(NC(=O)c2cc(OC)c(OC)c(OC)c2)C3)cc1` (configuration not stated), the IC50 is > 79 µM (inactive).

Regarding `COc1cc(C(=O)NC2CC3CCCC(C2)N3CC(=O)Nc2ccc(F)cc2)cc(OC)c1OC` (configuration not stated), the IC50 is > 79 µM (inactive).

Consider `COc1cc(C(=O)NC2CC3CCCC(C2)N3CC(=O)Nc2ccc(Cl)cc2)cc(OC)c1OC` (configuration not stated), for which the IC50 is > 79 µM (inactive).

Turning to `COc1ccccc1NC(=O)CN1C2CCCC1CC(NC(=O)c1cc(OC)c(OC)c(OC)c1)C2` (configuration not stated), the IC50 was > 79 µM (inactive).

The values above are taken from PubChem BioAssay AID651940 (Sanford-Burnham Center for Chemical Genomics, 2012).
